Data set [1] in a line: Elimination rate constant in ICR mouse at 20 mg/kg, po up to 24 hrs by LC-MS/MS analysis. It counts as ADME, organism-based. Conditions: in vivo.
Data set [2] can be described thus: Tmax in ICR mouse at 20 mg/kg, po by LC-MS/MS analysis. The class given is ADME, organism-based. Conditions: in vivo.
A short description of data set [3]: Initial plasma concentration in ICR mouse at 5 mg/kg, iv up to 24 hrs by LC-MS/MS analysis. The class given is ADME, organism-based.
Data set [4] is described as follows: MRT in ICR mouse at 20 mg/kg, ip up to 24 hrs by LC-MS/MS analysis. It counts as ADME, organism-based. Conditions: in vivo.
The target of a further data set is Histone deacetylase 2 (Homo sapiens, UniProt Q92769). As to the kind of experiment: Inhibition of HDAC2 (unknown origin) assessed as release of 7-amino-4-methylcoumarin incubated in room temperature for 15 min measured by Spectra max microtitre plate reader.
Another data set deals with Adenosine receptor A2a (Homo sapiens, UniProt P29274). As to the kind of experiment: Displacement of [3H]SCH58261 from adenosine A2A receptor membrane (unknown origin) measured after 60 mins by scintillation counting analysis. It counts as cell membranes. For orientation: In a radioligand displacement assay an active substance lowers the binding of a labelled ligand.
Data set [5] is described as follows: Half life in ICR mouse at 20 mg/kg, po by LC-MS/MS analysis. The class given is ADME, organism-based. Conditions: in vivo.
Data set [6] in a line: Elimination rate constant in ICR mouse at 5 mg/kg, iv up to 24 hrs by LC-MS/MS analysis. Conditions: in vivo. The class given is ADME, organism-based.
Data set [7] is described as follows: Cmax in ICR mouse at 20 mg/kg, ip up to 24 hrs by LC-MS/MS analysis. On the set-up: route intraperitoneal, dose 20 mg/kg, time <=24. Conditions: in vivo. The class given is ADME, organism-based.
For the next data set, the target named is T1, Adenosine receptor A2b (Homo sapiens, UniProt P29275).
T1 sequence (P29275 whole entry): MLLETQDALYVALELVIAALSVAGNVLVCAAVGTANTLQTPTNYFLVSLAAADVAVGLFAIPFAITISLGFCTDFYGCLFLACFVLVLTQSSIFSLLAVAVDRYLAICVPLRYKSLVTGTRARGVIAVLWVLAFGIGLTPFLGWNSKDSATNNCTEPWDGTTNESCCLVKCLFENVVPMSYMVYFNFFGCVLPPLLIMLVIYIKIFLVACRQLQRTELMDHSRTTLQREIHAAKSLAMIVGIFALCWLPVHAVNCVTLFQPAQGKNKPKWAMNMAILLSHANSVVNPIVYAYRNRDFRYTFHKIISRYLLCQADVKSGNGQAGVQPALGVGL
As to the kind of experiment: Displacement of [3H]DPCPX from human adenosine A2B receptor membrane (unknown origin) measured after 60 mins by scintillation counting analysis. It counts as cell membranes.

The nature of data set [8]: MRT in ICR mouse at 5 mg/kg, iv up to 24 hrs by LC-MS/MS analysis. The conditions noted are these: in vivo. The class given is ADME, organism-based.
Another data set deals with T2, Histone deacetylase 8 (Homo sapiens, UniProt Q9BY41).
T2 sequence (Q9BY41 whole entry): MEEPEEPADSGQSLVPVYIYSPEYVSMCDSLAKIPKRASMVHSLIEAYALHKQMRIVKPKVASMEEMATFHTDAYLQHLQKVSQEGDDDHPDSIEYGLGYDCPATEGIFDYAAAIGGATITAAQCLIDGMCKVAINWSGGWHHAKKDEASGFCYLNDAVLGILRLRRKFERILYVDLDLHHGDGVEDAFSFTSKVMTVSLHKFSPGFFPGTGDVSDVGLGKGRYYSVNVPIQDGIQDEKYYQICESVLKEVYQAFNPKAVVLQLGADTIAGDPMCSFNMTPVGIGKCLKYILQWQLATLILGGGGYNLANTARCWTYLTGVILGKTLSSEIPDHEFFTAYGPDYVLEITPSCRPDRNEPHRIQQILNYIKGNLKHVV
Kind of data set: Inhibition of HDAC8 (unknown origin) assessed as release of 7-amino-4-methylcoumarin incubated in room temperature for 15 min measured by Spectra max microtitre plate reader.

For a further data set, the system named is MC-38. Kind of data set: Antitumour activity against mouse MC38 cells in C57BL/6 mouse assessed as tumour growth inhibition at 60 mg/kg, ip, bid measured after 9 days relative to control. The conditions noted are these: MC-38, ip, 216 h, time 9 day, read-out: TGI. The class given is functional.
A short description of data set [9]: AUC (0 to t) in ICR mouse at 20 mg/kg, po by LC-MS/MS analysis. It counts as ADME, organism-based. Also noted: dose 20 mg/kg. Conditions: in vivo.
Data set [10] in a line: Bioavailability in ICR mouse at 20 mg/kg up to 24 hrs by LC-MS/MS analysis. The class given is ADME, organism-based. The conditions noted are these: in vivo.
The nature of data set [11]: Cmax in ICR mouse at 20 mg/kg, po by LC-MS/MS analysis. Also noted: route oral, dose 20 mg/kg. It counts as ADME, organism-based. Conditions: in vivo.
Another data set addresses T3, Histone deacetylase 11 (Homo sapiens, UniProt Q96DB2).
T3 sequence (Q96DB2 whole entry): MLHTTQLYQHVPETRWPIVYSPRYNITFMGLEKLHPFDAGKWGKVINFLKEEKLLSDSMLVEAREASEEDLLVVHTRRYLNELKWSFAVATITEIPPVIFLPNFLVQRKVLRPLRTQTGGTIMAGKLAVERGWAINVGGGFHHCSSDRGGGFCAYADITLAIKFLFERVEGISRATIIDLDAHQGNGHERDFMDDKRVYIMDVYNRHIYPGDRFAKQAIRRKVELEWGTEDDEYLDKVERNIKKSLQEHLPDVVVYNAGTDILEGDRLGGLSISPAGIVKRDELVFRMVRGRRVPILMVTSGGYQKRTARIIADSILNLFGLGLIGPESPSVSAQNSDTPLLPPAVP
As to the kind of experiment: Inhibition of HDAC11 (unknown origin) assessed as release of 7-amino-4-methylcoumarin incubated in room temperature for 15 min measured by Spectra max microtitre plate reader.

Data set [12] in a line: Tmax in ICR mouse at 20 mg/kg, ip up to 24 hrs by LC-MS/MS analysis. It counts as ADME, organism-based. The conditions noted are these: in vivo.
A further data set deals with Histone deacetylase 9 (Homo sapiens, UniProt Q9UKV0). Kind of data set: Inhibition of HDAC9 (unknown origin) assessed as release of 7-amino-4-methylcoumarin incubated in room temperature for 15 min measured by Spectra max microtitre plate reader.
The next data set concerns the target Histone deacetylase 3 (Homo sapiens, UniProt O15379). Kind of data set: Inhibition of HDAC3 (unknown origin) assessed as release of 7-amino-4-methylcoumarin incubated in room temperature for 15 min measured by Spectra max microtitre plate reader.

Molecules are shown by their SMILES.

As usually defined, the Tmax is the time from dosing to the highest level. For orientation: MRT means a mean duration of stay, worked out from the concentration-time curve. Usually IC50 stands for the midpoint of a concentration-inhibition curve. One may read the Ki as a dissociation constant, usually derived from enzyme kinetics or from competition with a known ligand. Lower therefore signals higher affinity. As usually defined, the half-life is how long it takes for the measured level to halve. The low end stands for rapid decline, the high end for slow decline. As a reminder, the Cmax is the highest concentration seen after dosing. For orientation: AUC(0-t) means the area under the concentration-time curve up to a stated or last time point.

Histone deacetylase 9, sequence (Q9UKV0 whole entry): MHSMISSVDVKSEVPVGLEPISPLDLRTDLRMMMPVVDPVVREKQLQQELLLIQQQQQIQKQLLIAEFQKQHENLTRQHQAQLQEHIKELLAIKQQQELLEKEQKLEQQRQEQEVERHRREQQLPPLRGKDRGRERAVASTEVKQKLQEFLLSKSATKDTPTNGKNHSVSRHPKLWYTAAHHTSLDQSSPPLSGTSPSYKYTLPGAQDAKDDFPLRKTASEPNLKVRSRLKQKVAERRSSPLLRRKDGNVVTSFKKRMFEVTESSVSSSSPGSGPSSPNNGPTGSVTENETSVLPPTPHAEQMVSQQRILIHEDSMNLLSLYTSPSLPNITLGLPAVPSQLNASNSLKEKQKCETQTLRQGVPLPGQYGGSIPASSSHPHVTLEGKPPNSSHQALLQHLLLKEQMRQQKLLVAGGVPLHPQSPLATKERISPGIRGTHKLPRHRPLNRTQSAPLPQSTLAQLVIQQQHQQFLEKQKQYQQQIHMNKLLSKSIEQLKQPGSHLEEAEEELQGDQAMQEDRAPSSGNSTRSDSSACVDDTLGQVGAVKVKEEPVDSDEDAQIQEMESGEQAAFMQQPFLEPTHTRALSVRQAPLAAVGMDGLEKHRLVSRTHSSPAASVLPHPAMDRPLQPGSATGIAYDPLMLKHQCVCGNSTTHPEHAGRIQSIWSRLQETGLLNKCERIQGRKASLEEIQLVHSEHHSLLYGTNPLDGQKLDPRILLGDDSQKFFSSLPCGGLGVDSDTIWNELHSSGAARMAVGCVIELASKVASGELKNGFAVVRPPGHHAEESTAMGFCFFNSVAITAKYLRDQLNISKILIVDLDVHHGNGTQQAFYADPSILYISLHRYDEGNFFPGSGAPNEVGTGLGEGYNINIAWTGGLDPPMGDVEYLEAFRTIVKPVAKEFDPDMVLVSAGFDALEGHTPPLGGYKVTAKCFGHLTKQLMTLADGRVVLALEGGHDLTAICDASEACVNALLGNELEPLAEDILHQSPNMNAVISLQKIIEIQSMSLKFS
Adenosine receptor A2a, sequence (P29274 whole entry): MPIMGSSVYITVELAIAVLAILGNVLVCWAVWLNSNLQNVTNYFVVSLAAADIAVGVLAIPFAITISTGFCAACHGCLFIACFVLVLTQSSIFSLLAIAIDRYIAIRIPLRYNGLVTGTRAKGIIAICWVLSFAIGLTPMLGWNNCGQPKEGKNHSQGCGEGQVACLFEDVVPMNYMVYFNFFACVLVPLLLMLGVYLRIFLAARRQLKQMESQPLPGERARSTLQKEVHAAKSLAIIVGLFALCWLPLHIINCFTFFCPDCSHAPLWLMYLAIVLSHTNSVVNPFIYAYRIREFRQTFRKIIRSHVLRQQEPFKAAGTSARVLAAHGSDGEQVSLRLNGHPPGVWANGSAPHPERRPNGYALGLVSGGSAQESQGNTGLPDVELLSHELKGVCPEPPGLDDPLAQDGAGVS
Histone deacetylase 3, sequence (O15379 whole entry): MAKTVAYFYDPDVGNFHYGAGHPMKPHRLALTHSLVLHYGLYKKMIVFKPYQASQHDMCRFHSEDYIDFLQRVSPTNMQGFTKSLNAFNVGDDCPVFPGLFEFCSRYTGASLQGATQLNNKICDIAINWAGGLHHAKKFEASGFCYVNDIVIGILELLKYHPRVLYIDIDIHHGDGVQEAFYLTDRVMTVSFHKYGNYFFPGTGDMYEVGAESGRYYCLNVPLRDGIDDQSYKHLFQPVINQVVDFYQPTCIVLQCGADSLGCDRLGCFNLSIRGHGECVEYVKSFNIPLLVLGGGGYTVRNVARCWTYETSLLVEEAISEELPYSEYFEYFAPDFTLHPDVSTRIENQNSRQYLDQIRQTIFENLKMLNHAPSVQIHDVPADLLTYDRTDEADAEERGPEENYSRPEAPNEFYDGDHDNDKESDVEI
Histone deacetylase 2, sequence (Q92769 whole entry): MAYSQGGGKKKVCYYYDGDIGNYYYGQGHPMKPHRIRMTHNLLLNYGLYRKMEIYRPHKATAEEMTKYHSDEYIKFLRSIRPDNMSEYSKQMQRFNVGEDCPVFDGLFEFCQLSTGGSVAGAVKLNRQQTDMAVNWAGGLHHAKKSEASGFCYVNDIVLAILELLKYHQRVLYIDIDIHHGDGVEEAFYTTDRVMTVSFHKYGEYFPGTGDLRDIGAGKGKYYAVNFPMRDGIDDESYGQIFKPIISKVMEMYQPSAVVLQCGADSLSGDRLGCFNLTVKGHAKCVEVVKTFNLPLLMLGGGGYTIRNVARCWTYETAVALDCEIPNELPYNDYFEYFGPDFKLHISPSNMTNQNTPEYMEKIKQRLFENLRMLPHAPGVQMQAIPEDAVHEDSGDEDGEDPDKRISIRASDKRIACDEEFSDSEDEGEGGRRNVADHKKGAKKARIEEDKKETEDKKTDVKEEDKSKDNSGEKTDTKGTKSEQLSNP

In the case of `Nc1ccccc1NC(=O)c1ccc(CCn2ncc3c2nc(N)n2nc(-c4ccco4)nc32)cc1`, the results for the k el at 24 h in [1] and in data set [6] were 9.86e-05 s⁻¹ and 0.000678 s⁻¹, respectively. Moreover, the results for the Tmax in data set [2] and in [12] were 15 min and 25 min, respectively. This molecule registered a C0 at 24 h in [3] of 4.58 µg/mL. Further, the MRT in [4] worked out at 157 min; in data set [8], 20 min. The IC50 was 0.179 µM on Histone deacetylase 2; over 10 µM at Histone deacetylase 8; over 10 µM at Histone deacetylase 11; over 10 µM on Histone deacetylase 9; 0.449 µM at Histone deacetylase 3. The Ki at Adenosine receptor A2a is 0.0022 µM; at Adenosine receptor A2b, 0.35 µM. This molecule also gave a half-life in data set [5] of 118 min. Moreover, the Cmax in [7] came to 2.16 µg/mL; in data set [11] it was 1.59 µg/mL. For the same molecule, in the data set with MC-38, the inhibition in vivo at 60 mg/kg is 95.3%. This molecule registered an AUC(0-t) in data set [9] of 1.77 µg·h/mL. In [10], the bioavailability stood at 112%.

The record behind these values is ChEMBL document CHEMBL5030563, “Structure-Based Design of Dual-Acting Compounds Targeting Adenosine A2A Receptor and Histone Deacetylase as Novel Tumor Immunotherapeutic Agents” (J Med Chem, 2021).
